# In patent US20160136284A1, “GLIOMA TREATMENT” (priority 2012, published 2016):
# Entries after “also recorded” stand apart in the source; their conditions may differ.
# Key:
# [1] = high-dose intravenous delivery; cited from earlier work
# [2] = single brainstem infusions, concentrations as high as 1 mg/ml; cited from earlier work
# [3] = tested on: SNB19 and UPAB glioma cells; experiment: MTT cytotoxicity assay in glioma cell lines; format: cell-based
# Experimental: Cell lines were kindly provided by Geoffrey Pilkington from the Institute of Biomedical and Biomolecular Sciences at Portsmouth University, UK. The cell lines used in this study were SNB19 (P20-P45) and UPAB (P20-P45).
# Briefly, SNB19 and UPAB glioma cells were plated at 1×10^4/well in a 24-well plate. Cells were treated 72 hours later with Carboplatin at the following concentrations: 0.06 mg, 0.12 mg, 0.18 mg, 0.24 mg, 0.3 mg, 0.36 mg, and 0.6 mg (TEVA, UK) for 24, 48, 72, or 96 hours. Each concentration was repeated 4 times. Carboplatin was diluted in phosphate buffered saline (PBS; Sigma Aldrich, UK) and added to 0.5 mL culture media. PBS was used as a negative control and Puromycin dihydrochloride (10 μg/mL; Sigma Aldrich, UK), which inhibits cell growth by preventing protein synthesis, was used as a positive control. Following the incubation period, culture media was changed. Then 50 μL Methylthiazolyl-tetrazolium bromide solution (MTT; Sigma Aldrich, UK; 5 mg/mL) was added to each well and further incubated for 3 hours at 37° C. in a humidified 5% CO2 atmosphere to allow MTT to form formazan crystals in metabolically active cells. Following this, media was removed, and the formazan crystals in each well were solubilized with 190 μL of isopropanol (Fisher Scientific, Loughborough, UK) acidified with hydrochloric acid (VWR, Leicestershire, UK). The cell lysate was transferred to a 96 well plate and the absorbance of each well was measured at 570 nm using a Multiskan Ascent plate reader (Thermo Electron Corporation, UK). Results are expressed as a percentage (%) of treated versus untreated cells.
# [4] = Coinfusion of carboplatin and gadolinium-DTPA into pig corona radiata (T1 MRI, LA-ICP-MS); format: in vivo; conditions: carboplatin 0.03 mg/ml coinfused with 0.3% gadolinium-DTPA, CED
# Experimental: Carboplatin infusions were undertaken into male Large White Landrace pigs weighing 45 kg using a cannula system developed in-house. Pig anaesthesia, head immobilisation and brain imaging were achieved as we have previously described White et al (2010). Infusions of 120 μl 0.03 mg/ml carboplatin mixed with 0.3% (6 μmol/l) Gadolinium-DTPA (Magnevist: Bayer Healthcare, Germany), were undertaken bilaterally into the corona radiata using a cannula composed of a length of fused silica (outer diameter 220 μm, inner diameter 150 μm) bonded to a glass Hamilton syringe. Except for the distal 3 mm, this fused silica tube was supported along its length by a series of zirconia tubes to ensure that it could be accurately inserted to target. Infusions were performed using the following regime: 0.5 μl/min for 5 min, 1 μl/min for 5 min, 2.5 μl/min for 5 min and then 5 μl/min for 20 min. This regime was employed in an attempt to minimise the occurrence of a sudden surge in pressure at the catheter tip due to elasticity in the infusion tubing. 120 μl was infused as this is the largest volume that we have previously infused into pig white matter without leakage into the ventricular system. Following infusion completion, the cannula was left in place for 10 min prior to being withdrawn slowly by hand. CSF leakage from the burr hole and cannula track was sealed with Cerebond prior to wound closure. […]
# [5] = tested on: diffuse intrinsic pontine glioma; experiment: CED of carboplatin in a patient with diffuse intrinsic pontine glioma
# Excerpt: MR imaging under general anaesthetic was undertaken to facilitate pre-operative stereotactic planning (field strength 3 T, Philips Achieva TX, Philips Healthcare, The Netherlands) one week prior to surgery. […] A left transfrontal trajectory for catheter implantation was planned (FIGS. 7a-d) facilitating the in-house manufacture of a bespoke catheter with a winged hub (FIG. 8a). The catheter was manufactured from polyether ether ketone (PEEK) with an outer diameter (OD) of 0.6 mm, which was bonded onto a fused silica cannula with a laser-cut tip (OD 0.23 mm). The catheter was designed to be implanted through a 1 mm OD carbothane guide-tube.
# On the day of surgery the patient was anaesthetised and placed in a Leksell frame. A pre-operative CT angiogram was performed and co-registered with the post-contrast T1 weighted planning MRI scan to facilitate output of stereotactic co-ordinates to a Neuro|Mate® neurosurgical robot (Renishaw) (FIG. 8b). A 3 cm left frontal curvilinear scalp incision was made and the periosteum retracted. The robot was driven to the entry position on the skull, and using custom-made hand drills, a multi-featured burr hole made into which the guide tube hub would push fit. The dura was pierced and a 1 mm guide rod inserted to a point 24 mm proximal to the target within the tumour. The guide tube was then implanted on a 0.6 mm guide rod to maintain trajectory. The catheter was tunnelled out through a separate stab incision in the scalp and connected to a custom-made in-line gas and bacterial filter. The catheter was attached to an infusion pump (B Braun, Melsungen, Germany) and primed with artificial cerebrospinal fluid (Torbay Pharmaceutical Manufacturing Unit, Torbay, UK). The fused silica catheter was then implanted via the guide-tube with 3 mm of fused silica retained within the guide tube and 24 mm extending beyond the guide-tube tip, thus creating a “recessed-step” within the distal guide-tube (FIG. 8c). The winged hub of the catheter was turned 90° at the skull and secured with 5 mm titanium screws. […] The skin incision was closed in layers and the externalised catheter tubing secured in a loop on the scalp (FIG. 8d).
# Whilst under general anaesthesia the child was transferred to the 3 T MRI scanner. The externalised catheter was attached to a 6 m extension line to allow infusions to be performed from a syringe driver (B Braun) outside of the scan room. Infusions of carboplatin diluted in artificial cerebrospinal fluid to a concentration of 0.09 mg/ml were commenced using the following infusion regime:
# 0.5 μl/min for 10 minutes, 1 μl/min for 5 minutes, 2.5 μl/min for 5 minutes, 5 μl/min for 5 minutes, 7.5 μl/min until completion.
# Serial real-time T2-weighted MRI scans were performed in order to allow areas of hyperintense signal change to be used as a proxy measure for drug distribution. […] Once the Vi:Vd ratio was established the child was recovered from anaesthesia and monitored in a high dependency area until completion of the infusion. […] Infusions of carboplatin were performed on 3 consecutive days in order to maintain exposure to the cytotoxic chemotherapy for at least 72 hours.
# [6] = one month after completion of infusions
compound,measurement,setting,value
N.N.O=C([O-])C1(C(=O)[O-])CCC1.[Pt+2] [carboplatin],peak glioma tissue concentration,[1],0.013 mg/mL
same,histological tissue damage,[2],without histological evidence of tissue damage
same,concentration above which increase in cell kill is negligible,[3]; 72 hour exposure,0.24 mg/mL
same,concentration above which increase in cell kill is negligible,[3]; 96 hour exposure,0.18 mg/mL
same,cell kill,"[3]; 96 hour exposure, 0.18 mg/ml",greater than 90%
same,distribution in pig corona radiata (LA-ICP-MS),[4],widespread carboplatin distribution
same,volume of T2 signal change on completion of final infusion,"[5]; after 5 infusions, 0.09 and 0.18 mg/ml",35.1 mL
same,volume of distribution (T2-weighted MRI),"[5]; after infusion of 0.52 ml, 0.09 mg/ml in artificial CSF",2.06 mL
same,follow-up T2-weighted MR imaging,[5]; [6],suggestive of the early stages of tumour necrosis
same,follow-up post-contrast T1-weighted imaging,[5]; [6],tumour progression in the inferior and anterior regions of the tumour
same,tolerability of infusions,"[5]; patient, 0.09-0.18 mg/ml, up to 10 μl/min",well tolerated; also recorded: transient worsening in neurological status
